Laboratory results: patent US7173037B2, “Carbamate-substituted pyrazolopyridines” (Bayer HealthCare AG, priority 2002, dated 2007)
Like-named read-outs stand apart in the source and are kept apart here.

Legend:
[1] = tested on: rabbit aorta rings; assay: Vasorelaxant effect in vitro (phenylephrine-contracted aorta rings); type: cell-based; settings: Oryctolagus cuniculus, phenylephrine contraction, read-out: IC50 (concentration necessary to reduce the height of the contraction by 50%)
Experimental: Rabbits are stunned by a blow to the back of the neck and are exsanguinated. The aorta is removed, freed of adherent tissue and divided into rings 1.5 mm wide, which are put singly under tension in 5 ml organ baths containing carbogen-gassed Krebs-Henseleit solution at 37° C. with the following composition (mM): NaCl:119; KCl:4.8; CaCl2×2H2O:1; MgSO4×7H2O:1.4; KH2PO4:1.2; NaHCO3:25; Glucose:10. The force of contraction is detected with Statham UC2 cells, amplified and digitized via A/D converters (DAS-1802 HC, Keithley Instruments Munich) and recorded in parallel on chart recorders. A contraction is generated by adding phenylephrine to the bath cumulatively in increasing concentration. After several control cycles, the substance to be investigated is investigated in each further run in increasing dosage in each case, and the height of the contraction is compared with the height of the contraction reached in the last preceding run. The concentration necessary to reduce the height of the control value by 50% (IC50) is calculated from this. The standard application volume is 5 μl, and the DMSO content in the bath solution corresponds to 0.1%.

[2] = tested on: CYP2B6; settings: human, hepatocytes, 5 days
[3] = tested on: CYP3A4; settings: human, hepatocytes
[4] = tested on: CYP2C19; settings: human, hepatocytes, 5 days
[5] = tested on: rabbit penis erection; assay: Rabbit model (erection, length of the protruding penis); type: in vivo, chinchilla rabbits; settings: oral administration, with simultaneous 0.2 mg/kg i.v. sodium nitroprusside SNP
Experimental: Adult male chinchilla rabbits weighing 3–5 kg are adapted to being kept singly for several days after delivery. They have free access to water and can take feed for two hours a day. The animals are kept in a 10/14-hour day/night rhythm (light on from 8.00 h), and the room temperature is 22–24° C.
Three to six animals are used in each treatment group and are weighed immediately before the start of the test. For the i.v. administration, the substances are dissolved in Transcutol (GATTEFOSSE GmbH) and diluted in the ratio 3/7 with a 20% strength Cremophor solution (Cremophor (BASF), water). A volume of 0.5 ml/kg is injected into the ear vein. Water-soluble substances are injected in 0.9% sodium chloride solution.
For oral administration, the test substances are dissolved in a 6:10:9.69 glycerol:water:polyethylene glycol mixture and administered by gavage in a volume of 1 ml/kg.
Under resting conditions, the rabbit penis is invisible in the pubic region and is completely covered by the penis skin. The erection is assessed by measuring the length of the protruding penis with a slide calliper. […] The animals are for this purpose removed from the cage each time, held firmly by the neck fur and the rear paws, turned on their backs and measured. […]

[6] = design: species or system rats; settings: rat, in vivo, po
Experimental: The substance to be investigated is administered intravenously as solution to animals (e.g. mice, rats, dogs), and oral administration takes place as solution or suspension by gavage. After administration of the substance, blood is taken from the animals at fixed times and is heparinized, and then plasma is obtained therefrom by centrifugation. The substance is quantified analytically in the plasma by LC/MS/MS. The plasma concentration/time courses found in this way are used to calculate the pharmacokinetic parameters by means of a validated pharmacokinetic computer programme.
Inhibition of Cytochrome P450 Enzymes

[7] = tested on: CYP1A2; assay: Induction of cytochrome P450 enzymes in human liver cell cultures, CYP1A2; type: in vitro ADME; settings: human hepatocyte cultures, control = 1.0
[8] = tested on: CYP2C19; assay: Induction of cytochrome P450 enzymes in human liver cell cultures, CYP2C19; settings: human hepatocyte cultures, 2000 μM, control = 1.0
[9] = tested on: CYP2B6; assay: Induction of cytochrome P450 enzymes in human liver cell cultures, CYP2B6; settings: human hepatocyte cultures, 2000 μM, control = 1.0

In the case of `COC(=O)N(C)c1cnc(-c2nn(Cc3ccccc3F)c3ncccc23)nc1N` [Example 1, Methyl 4-amino-2-[1-(2-fluorobenzyl)-1H-pyrazolo[3,4-b]pyridin-3-yl]-5-pyrimidinyl(methyl)carbamate], the IC50 [1] is reported as 670 nM.

For `COC(=O)N(C)c1c(N)nc(-c2nn(Cc3ccccc3F)c3ncccc23)nc1N` [Example 8, Methyl 4,6-diamino-2-[1-(2-fluorobenzyl)-1H-pyrazolo[3,4-b]pyridin-3-yl]-5-pyrimidinyl(methyl)carbamate], the “Inductive effect on CYP2B6 activity (standardized)” value (“Inductive effect on CYP2B6 activity” for short) ([2]; 0.01 μg/ml) was 1.92, the “Inductive effect on CYP2B6 activity” value ([2]; 0.1 μg/ml) was 1.62 and the “Inductive effect on CYP2B6 activity” value ([2]; 1 μg/ml) was 1.85. For the same compound, the “Inductive effect on CYP2B6 activity” value ([2]; 10 μg/ml) was 2.54, the “Inductive effect on CYP3A4 activity (standardized)” value (from here on “Inductive effect on CYP3A4 activity”) ([3]; 5 days, 0.01 μg/ml) was 1.37 and the “Inductive effect on CYP3A4 activity” value ([3]; 5 days, 0.1 μg/ml) was 1.60. For the same compound, the “Inductive effect on CYP3A4 activity” value ([3]; 5 days, 1 μg/ml) was 1.51, the “Inductive effect on CYP3A4 activity” value ([3]; 5 days, 10 μg/ml) was 3.47 and the “Inductive effect on CYP2C19 activity (standardized)” value ([4]; 0.01 μg/ml) was 1.30. The “Inductive effect on CYP2C19 activity (standardized)” value ([4]; 0.1 μg/ml) was 1.30, the “Inductive effect on CYP2C19 activity (standardized)” value ([4]; 1 μg/ml) was 1.12 and the “Inductive effect on CYP2C19 activity (standardized)” value ([4]; 10 μg/ml) was 1.97. It also gave a minimal effective dose [5] of 0.03 mg/kg, an AUCstand ([6]; 0.3 mg/kg) of 0.326 kg·h/L and an AUCstand ([6]; 1 mg/kg) of 0.548 kg·h/L. For the same compound, the IC50 [1] was 500 nM, the “Inductive effect on CYP1A2 activity (standardized)” value (from here on “Inductive effect on CYP1A2 activity”) ([7]; 0.01 μg/ml) was 0.76 and the “Inductive effect on CYP1A2 activity” value ([7]; 0.1 μg/ml) was 0.70. The “Inductive effect on CYP1A2 activity” value ([7]; 1.0 μg/ml) was 0.90 and the “Inductive effect on CYP1A2 activity” value ([7]; 10 μg/ml) was 1.38.

In the case of `COc1ccc2[nH]c([S+]([O-])Cc3ncc(C)c(OC)c3C)nc2c1` (stereo not drawn) [OME, omeprazole, reference compound], the “Inductive effect on CYP2B6 activity” value ([2]; 100 μM) is reported as 1.54, the “Inductive effect on CYP3A4 activity” value ([3]; 5 days, 100 μM) is reported as 1.45 and the “Inductive effect on CYP2C19 activity (standardized)” value ([4]; 100 μM) is reported as 1.61. The “Inductive effect on CYP1A2 activity” value ([7]; 100 μM) was 28.57.

For `CCC1(c2ccccc2)C(=O)NC(=O)NC1=O` [PB, phenobarbital], the “Inductive effect on CYP2C19 activity (standardized)” value [8] was 4.00, the “Inductive effect on CYP3A4 activity” value [3] was 6.70 and the “Inductive effect on CYP2B6 activity” value [9] was 14.69.

With `CO[C@H]1/C=C/O[C@@]2(C)Oc3c(C)c(O)c4c(O)c(c(/C=N/N5CCN(C)CC5)c(O)c4c3C2=O)NC(=O)/C(C)=C\C=C\[C@H](C)[C@H](O)[C@@H](C)[C@@H](O)[C@@H](C)[C@H](OC(C)=O)[C@@H]1C` [RIF, rifampicin, reference compound] the “Inductive effect on CYP2B6 activity” value ([2]; 50 μM) was 5.15 and the “Inductive effect on CYP2C19 activity (standardized)” value ([4]; 50 μM) was 15.21.
